# pIC50: −log10 of the molar value.
# Assays:
# [1] = system: CCRF-CEM (Leukemia) doxorubicin sensitive cells; test: MTT cytotoxicity assay, CCRF-CEM; format: cell-based; details: Homo sapiens, 72 h, 3 days
# Procedure: (§1) Cell cultures and cytotoxicity assays have been used. Celastrol was dissolved in DMSO at a final concentration of 100 mmol/L and stored at −20° C. Cytotoxicity was assessed using the 3-(4,5-dimethylthiazol-2-yl)-2,5-diphenyltetrazolium bromide assay. 4000 cells from MCF-7 doxorubicin sensitive/resistant breast cancer cells or CEM doxorubicin sensitive/resistant leukemia cells were seeded on 96-well plates per well. After overnight pre-incubation, the cells were exposed to different concentrations of celastrol (0.039-100 μmol/L) or doxorubicin for 3 days. Subsequently, 10 μL of MTT reagents were added to each well and incubated at 37° C. for 4 hours followed by the addition of 100 μL solubilization buffer (10% SDS in 0.01 mol/L HCl) and overnight incubation. Absorbance at 585 nm was determined from each well the next day. The percentage of cell viability was calculated using the following formula: Cell viability (%)=Cells number treated/Cells number DMSO control×100. Data were obtained from three independent experiments.
# [2] = system: CEM-ADR5000 (Leukemia) doxorubicin resistant cells; test: MTT cytotoxicity assay, CEM-ADR5000; format: cell-based, human
# Procedure: as §1
# [3] = system: A549 (Lung) taxol resistant cancer cells; test: MTT cytotoxicity assay, A549 taxol resistant; format: cell-based, human
# Procedure: (§2) Cell cultures and cytotoxicity assays have been used. Celastrol was dissolved in DMSO at a final concentration of 100 mmol/L and stored at −20° C. Cytotoxicity was assessed using the 3-(4,5-dimethylthiazol-2-yl)-2,5-diphenyltetrazolium bromide assay. 4000 cells from A549 (lung), A2780 (ovary), HCT-8 (colon) and MCF-7 (breast) cancer cells were seeded on 96-well plates per well. After overnight pre-incubation, the cells were exposed to different concentrations of celastrol (0.039-100 μmol/L) or taxol for 3 days. Subsequently, 10 μL of MTT reagents was added to each well and incubated at 37° C. for 4 hours followed by the addition of 100 μL solubilization buffer (10% SDS in 0.01 mol/L HCl) and overnight incubation. Absorbance at 585 nm was determined from each well the next day. The percentage of cell viability was calculated using the following formula: Cell viability (%)=Cells number treated/Cells number DMSO control×100. Data were obtained from three independent experiments.
# [4] = system: SGC-7901 (Gastric) cisplatin resistant cancer cells; test: MTT cytotoxicity assay, SGC-7901 cisplatin resistant; format: cell-based, human
# Procedure: as §1, with “A2780 cisplatin” for “MCF-7 doxorubicin”, “ovarian” for “breast”, “SGC-7901 cisplatin” for “CEM doxorubicin”, “gastric cancer” for “leukemia”, “cisplatin” for “doxorubicin”
# [5] = system: HCT-8 (Colon) taxol sensitive cancer cells; test: MTT cytotoxicity assay, HCT-8 taxol sensitive; format: cell-based; details: Homo sapiens, HCT-8, 72 h, read-out: IC50 HCT-8 (Colon) (Taxol sensitive)
# Procedure: as §2
# [6] = system: A549 (Lung) taxol sensitive cancer cells; test: MTT cytotoxicity assay, A549 taxol sensitive; format: cell-based; details: Homo sapiens, A549, 72 h, read-out: IC50 A549 (Lung) (Taxol sensitive)
# Procedure: as §2
smiles,measurement,setting,value
"CC1=C(O)C(=O)C=C2C1=CC=C1[C@@]2(C)CC[C@@]2(C)[C@@H]3C[C@](C)(C(=O)O)CC[C@]3(C)CC[C@]12C [Celastrol, celastrol]",pIC50,[1],5.49
same,Resistant Factor,[2]; CEM-ADR5000 versus CCRF-CEM,0.033
same,pIC50,"[2]; Homo sapiens, 72 h, MTT, 3 days",6.97
same,Resistant Factor,[3]; A549 taxol resistant versus taxol sensitive,0.42
same,pIC50,"[3]; Homo sapiens, A549, 72 h, read-out: IC50 A549 (Lung) (Taxol resistant)",6.00
same,pIC50,"[4]; Homo sapiens, SGC-7901, 72 h, read-out: IC50 SGC-7901 (Gastric) (Cisplatin resistant)",5.76
same,Resistant Factor,[4]; SGC-7901 cisplatin resistant versus cisplatin sensitive,0.88
same,pIC50,[5],6.03
same,pIC50,[6],5.62
